Measurements reported in patent US20060025430A1, “Novel irreversible inhibitors of epidermal growth factor receptor tyrosine kinase and uses thereof for therapy and diagnosis” (priority 2003, published 2006).

How the values were obtained:
EGFR = target: T1, EGFR (Homo sapiens, UniProt P00533); assay: Selective-inhibition assay in DHER14 cells (receptor phosphotyrosine, Western blot); assay type: cell-based; conditions: DHER14 cells expressing EGFR, 1 hour incubation, EGF stimulation
T1 construct: expressed in transfected cells; host or cells: NIH3T3 (DHER14 cells)
Description: (§1) NIH3T3 cells transformed with either the EGFR (DHER14 cells), with the HER1-HER2 chimera (CSH12 cells) or with the PDGFR (NIH/PDGFR cells), decribed by Lee et al.; 1989, Honegger et al., 1988; and Shawver et al. 1997, and A431 human epidermoid vulval carcinoma cells were grown in Dulbecco's modified Eagle's medium (DMEM) (Biological industries, Kibbuts Beit Haemek, Israel) supplemented with 10% fetal calf serum and antibiotics (penicillin […], streptomycin 100 mg/liter) at 37° C. in 5% CO2.
(§2) Selective-inhibition assay: CSH12, DHER14 and […] cells, expressing either the HER1-HER2 chimera, EGFR or PDGFR, respectively, were used for the determination of inhibitory selectivity. Cells (7.5×10^4) were grown in 6-well plates (35 mm diameter, Nalge Nunc) for 24 hours and then incubated in 0.25% FCS-containing medium for an additional 24 hours to about 90% confluence. Duplicate sets of cells were treated with the tested compounds at varying concentrations for 1 hour. The final concentration of the vehicle in the medium was 0.05% DMSO, 0.1% EtOH. After removal of the inhibitor from the medium, PBS wash (×2) and addition of 0.25% serum-containing medium to the wells, the cells were stimulated with either 20 ng/mL human EGF for 5 minutes (CSH12 and DHER14 cells) or 50 ng/ml human PDGFββ for 10 minutes ([…] cells) at 37° C. […]

HER1-HER2 chimera = target: T2, HER1-HER2 chimera (Homo sapiens, UniProt P04626); assay: Selective-inhibition assay in CSH12 cells (receptor phosphotyrosine, Western blot); assay type: cell-based; conditions: CSH12 cells expressing HER1-HER2 chimera, 1 hour incubation, EGF stimulation
T2 construct: HER2 cytoplasmic domain generates normal mitogenic and transforming signals in a chimeric receptor; expressed in transfected cells; host or cells: NIH3T3 (CSH12 cells); the other entry of the earlier key: EGFR (P00533, Epidermal growth factor receptor)
Source text: Identical protein amounts from each lysate sample were loaded onto polyacrylamide gel (6% or 10%), separated by electrophoresis (Hoefer Pharmacia Biotech Inc., San Francisco, USA) and transferred to nitrocellulose membrane (power supply: EPS 500/400, Amersham Pharmacia Biotech; nitrocellulose extra blotting membranes: Sartorius AG, Goettingen, Germany). A standard high molecular weight solution was loaded as a reference. For visualization of molecular weight bands, the membrane was immersed in Ponceau reagent (0.05% Ponceau, 5% acetic acid) for a few minutes, and then washed twice with TTN (10 mM Tris pH 7.4, 0.2% TWEEN 20, 170 mM NaCl) and once with water. The membrane was blocked overnight in TTN containing 5% milk (1% fat) (blocking TTN) and incubated for 90 minutes with PY20 antiphosphotyrosine antibody (Santa Cruz Biotechnology Inc., Santa Cruz, USA) diluted 1:2,000 in blocking TTN. The membrane was then washed with TTN (3×5 minutes), incubated for 90 minutes with a horseradish peroxidase-conjugated secondary antibody (Goat anti-mouse IgG H+L, Jackson ImResearch Laboratories, Inc., diluted 1:10,000 in blocking TTN), and finally washed again with TTN (3×5 minutes).

PDGFR = PDGFR (Homo sapiens, UniProt P09619); assay: Selective-inhibition assay in […] cells (receptor phosphotyrosine, Western blot); assay type: cell-based; conditions: […] cells expressing PDGFR, 1 hour incubation, PDGFββ stimulation
Description: as §1, §2

T2 sequence (P04626 with tags, fused parts or gaps): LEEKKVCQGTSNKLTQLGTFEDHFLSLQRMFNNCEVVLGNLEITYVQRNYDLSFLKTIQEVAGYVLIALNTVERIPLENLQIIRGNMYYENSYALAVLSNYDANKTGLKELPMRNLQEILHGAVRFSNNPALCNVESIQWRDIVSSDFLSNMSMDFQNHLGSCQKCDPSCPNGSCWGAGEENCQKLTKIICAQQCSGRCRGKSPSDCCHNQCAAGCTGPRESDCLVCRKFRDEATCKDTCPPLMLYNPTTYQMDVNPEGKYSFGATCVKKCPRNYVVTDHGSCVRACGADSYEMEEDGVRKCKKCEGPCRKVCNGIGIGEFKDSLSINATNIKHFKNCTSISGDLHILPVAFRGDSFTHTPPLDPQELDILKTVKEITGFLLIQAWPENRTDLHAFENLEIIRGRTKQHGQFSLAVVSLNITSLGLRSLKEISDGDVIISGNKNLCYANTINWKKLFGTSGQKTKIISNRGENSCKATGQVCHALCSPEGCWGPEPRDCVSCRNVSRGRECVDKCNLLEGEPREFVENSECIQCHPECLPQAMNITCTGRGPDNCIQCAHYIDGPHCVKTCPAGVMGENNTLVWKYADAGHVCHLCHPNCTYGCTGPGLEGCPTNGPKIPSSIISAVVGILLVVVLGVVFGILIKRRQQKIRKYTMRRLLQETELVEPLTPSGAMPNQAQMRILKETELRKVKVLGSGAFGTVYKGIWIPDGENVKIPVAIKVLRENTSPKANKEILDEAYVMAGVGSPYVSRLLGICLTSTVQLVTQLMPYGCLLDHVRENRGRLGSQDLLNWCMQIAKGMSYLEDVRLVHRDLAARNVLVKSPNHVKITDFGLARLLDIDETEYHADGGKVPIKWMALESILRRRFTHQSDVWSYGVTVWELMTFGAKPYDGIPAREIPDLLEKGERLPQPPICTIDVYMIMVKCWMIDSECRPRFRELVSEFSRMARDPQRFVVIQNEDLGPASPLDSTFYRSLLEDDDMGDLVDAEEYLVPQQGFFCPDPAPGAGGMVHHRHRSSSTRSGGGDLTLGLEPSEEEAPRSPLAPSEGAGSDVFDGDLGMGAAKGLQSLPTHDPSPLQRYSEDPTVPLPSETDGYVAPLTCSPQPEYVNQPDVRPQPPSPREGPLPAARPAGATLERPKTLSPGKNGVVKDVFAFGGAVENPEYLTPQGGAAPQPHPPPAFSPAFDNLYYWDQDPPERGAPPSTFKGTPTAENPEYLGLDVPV
T1 sequence (P00533 25-1210): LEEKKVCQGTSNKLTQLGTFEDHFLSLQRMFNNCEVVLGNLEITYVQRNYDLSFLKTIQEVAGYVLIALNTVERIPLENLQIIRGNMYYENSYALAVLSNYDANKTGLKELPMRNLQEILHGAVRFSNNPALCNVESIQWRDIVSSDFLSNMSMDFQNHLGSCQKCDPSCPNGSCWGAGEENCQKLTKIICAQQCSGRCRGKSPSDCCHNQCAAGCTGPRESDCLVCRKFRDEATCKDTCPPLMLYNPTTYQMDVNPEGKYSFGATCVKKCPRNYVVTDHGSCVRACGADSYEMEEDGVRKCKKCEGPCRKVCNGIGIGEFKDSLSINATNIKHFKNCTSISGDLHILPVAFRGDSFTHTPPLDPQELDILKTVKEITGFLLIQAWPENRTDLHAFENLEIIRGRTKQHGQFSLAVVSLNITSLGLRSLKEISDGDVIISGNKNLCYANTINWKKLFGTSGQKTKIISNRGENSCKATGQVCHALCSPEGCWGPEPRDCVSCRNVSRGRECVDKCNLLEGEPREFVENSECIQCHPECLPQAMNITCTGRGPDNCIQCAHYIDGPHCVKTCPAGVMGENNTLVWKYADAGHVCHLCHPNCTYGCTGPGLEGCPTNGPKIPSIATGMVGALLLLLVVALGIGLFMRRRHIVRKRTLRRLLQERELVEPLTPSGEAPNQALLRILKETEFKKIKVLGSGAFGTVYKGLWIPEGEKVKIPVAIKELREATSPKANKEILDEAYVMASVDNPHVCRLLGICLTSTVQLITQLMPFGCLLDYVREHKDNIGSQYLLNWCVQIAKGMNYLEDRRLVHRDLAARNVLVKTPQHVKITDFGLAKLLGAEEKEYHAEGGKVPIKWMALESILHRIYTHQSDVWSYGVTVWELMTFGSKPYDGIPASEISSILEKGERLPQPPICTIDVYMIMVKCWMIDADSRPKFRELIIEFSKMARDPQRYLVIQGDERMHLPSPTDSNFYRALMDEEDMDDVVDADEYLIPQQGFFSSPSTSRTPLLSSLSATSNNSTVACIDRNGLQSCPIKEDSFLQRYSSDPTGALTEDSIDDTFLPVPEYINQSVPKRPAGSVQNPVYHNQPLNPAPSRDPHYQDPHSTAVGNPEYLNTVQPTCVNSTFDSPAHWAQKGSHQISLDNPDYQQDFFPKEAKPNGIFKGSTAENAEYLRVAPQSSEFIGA
PDGFR, sequence (P09619 whole entry): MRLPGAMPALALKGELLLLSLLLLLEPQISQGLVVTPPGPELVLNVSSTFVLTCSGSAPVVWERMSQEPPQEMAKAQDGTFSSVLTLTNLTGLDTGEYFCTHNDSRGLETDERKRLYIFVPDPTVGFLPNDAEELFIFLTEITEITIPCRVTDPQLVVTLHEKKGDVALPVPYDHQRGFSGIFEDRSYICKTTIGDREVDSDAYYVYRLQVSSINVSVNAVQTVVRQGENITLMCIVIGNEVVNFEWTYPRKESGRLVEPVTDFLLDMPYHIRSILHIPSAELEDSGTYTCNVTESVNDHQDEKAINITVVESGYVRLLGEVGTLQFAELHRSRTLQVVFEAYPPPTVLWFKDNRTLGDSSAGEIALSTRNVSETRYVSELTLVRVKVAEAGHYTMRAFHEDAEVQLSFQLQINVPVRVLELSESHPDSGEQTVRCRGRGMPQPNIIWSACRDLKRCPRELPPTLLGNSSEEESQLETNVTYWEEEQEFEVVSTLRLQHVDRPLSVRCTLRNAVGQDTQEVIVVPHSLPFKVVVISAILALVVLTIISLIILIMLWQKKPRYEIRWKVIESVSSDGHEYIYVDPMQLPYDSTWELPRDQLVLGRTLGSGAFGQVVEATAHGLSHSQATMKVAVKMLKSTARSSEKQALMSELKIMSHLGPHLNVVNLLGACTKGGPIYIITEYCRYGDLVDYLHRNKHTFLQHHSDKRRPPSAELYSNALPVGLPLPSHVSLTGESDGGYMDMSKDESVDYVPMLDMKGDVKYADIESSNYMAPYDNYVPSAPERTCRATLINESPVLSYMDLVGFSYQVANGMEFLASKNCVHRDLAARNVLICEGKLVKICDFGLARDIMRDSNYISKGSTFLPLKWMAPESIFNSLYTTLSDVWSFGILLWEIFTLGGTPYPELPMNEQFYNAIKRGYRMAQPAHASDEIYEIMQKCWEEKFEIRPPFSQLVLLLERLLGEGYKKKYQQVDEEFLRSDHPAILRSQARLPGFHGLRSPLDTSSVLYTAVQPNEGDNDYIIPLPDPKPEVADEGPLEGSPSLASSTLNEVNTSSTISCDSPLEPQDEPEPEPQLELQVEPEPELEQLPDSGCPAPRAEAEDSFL

IC50 (EGFR): 5 to 15 nM
IC50 (HER1-HER2 chimera): 25 to 50 nM
IC50 (PDGFR): > 1000 nM
melting point: > 300 °C
Structure (SMILES): O=C(CCl)Nc1ccc2ncnc(Nc3cc(Cl)c(Cl)cc3F)c2c1 [Compound 5, N-{4-[(4,5-Dichloro-2-fluoro-phenyl)amino]-quinazolin-6-yl}-2-chloroacetamide]
